Numbers after ± are expanded uncertainties.
How the values were obtained:
[1] = relative permittivity at various frequencies (dimensionless); settings: 100 kPa, Liquid, Frequency=30 MHz, Parallel plate capacitor
[2] = refractive index (Na D-line) (dimensionless); settings: 100 kPa, Liquid, Standard Abbe refractometry
[3] = 100 kPa, Liquid; for viscosity: Capillary tube (Ostwald / Ubbelohde) method; for mass density: Vibrating tube method
[4] = relative permittivity at various frequencies (dimensionless); xn = mol fraction of the nth substance listed; settings: 100 kPa, Liquid, Frequency=30 MHz, Parallel plate capacitor, x1 = 1
[5] = refractive index (Na D-line) (dimensionless); xn = mol fraction of the nth substance listed; settings: 100 kPa, Liquid, Standard Abbe refractometry, x1 = 1
[6] = xn = mol fraction of the nth substance listed; settings: 100 kPa, Liquid, x1 = 1; for viscosity: Capillary tube (Ostwald / Ubbelohde) method; for mass density: Vibrating tube method

| SMILES | relative permittivity ([1]; 293.15 K) | relative permittivity ([1]; 298.15 K) | relative permittivity ([1]; 303.15 K) | refractive index ([2]; 293.15 K) | refractive index ([2]; 298.15 K) | refractive index ([2]; 303.15 K) | viscosity ([3]; 293.15 K) | mass density ([3]; 293.15 K) | viscosity ([3]; 298.15 K) | mass density ([3]; 298.15 K) | viscosity ([3]; 303.15 K) | mass density ([3]; 303.15 K) | also measured |
| --- | --- | --- | --- | --- | --- | --- | --- | --- | --- | --- | --- | --- | --- |
| NC1CCCCC1 [cyclohexylamine] | 4.65 ± 0.09 | 4.56 ± 0.09 | 4.47 ± 0.09 | 1.45934 ± 0.0044 | 1.45663 ± 0.0044 | 1.45325 ± 0.0044 | 2.142 ± 0.046 mPa·s | 866.86 ± 2.1 kg/m3 | 1.908 ± 0.041 mPa·s | 862.315 ± 2.1 kg/m3 | 1.697 ± 0.036 mPa·s | 857.774 ± 2.1 kg/m3 |  |
| CO [methanol] | 33.6 ± 0.67 | 32.62 ± 0.65 | 31.67 ± 0.63 | 1.32866 ± 0.004 | 1.32682 ± 0.004 | 1.32444 ± 0.004 | 0.585 ± 0.012 mPa·s | 791.414 ± 1.9 kg/m3 | 0.545 ± 0.011 mPa·s | 786.716 ± 1.9 kg/m3 | 0.508 ± 0.011 mPa·s | 782.032 ± 1.9 kg/m3 |  |
| CO [methanol] + NC1CCCCC1 |  |  |  |  |  |  |  |  |  |  |  |  | relative permittivity ([4]; 293.15 K): 33.6 ± 0.67; relative permittivity ([4]; 298.15 K): 32.62 ± 0.65; relative permittivity ([4]; 303.15 K): 31.67 ± 0.63; refractive index ([5]; 293.15 K): 1.32866 ± 0.004; refractive index ([5]; 298.15 K): 1.32682 ± 0.004; refractive index ([5]; 303.15 K): 1.32444 ± 0.004; viscosity ([6]; 293.15 K): 0.585 ± 0.012 mPa·s; mass density ([6]; 293.15 K): 791.414 ± 1.9 kg/m3; viscosity ([6]; 298.15 K): 0.545 ± 0.011 mPa·s; mass density ([6]; 298.15 K): 786.716 ± 1.9 kg/m3; viscosity ([6]; 303.15 K): 0.508 ± 0.011 mPa·s; mass density ([6]; 303.15 K): 782.032 ± 1.9 kg/m3 |
